Columns and labels:
[1] = system: oral cavity and pharyngeal surfaces; experiment: Sensory activity of ODT-A on volunteers; format: in vivo, human; settings: 6 to 8 trials per compound
Procedure: ODT-A was prepared by dissolving the DAPA compound in absolute ethanol, adding a 80% mannitol-20% maltitol mixture of equal weight and then adding an equal volume of distilled water. The mixture was the stirred with a glass rod, and dispensed onto a piece of wax or parchment paper with a disposable plastic pipette. The viscous liquid drop formed was then dried under a heat source for at least 4 hr. The nominal dose of the API in ODT-A ranged from 1 to 3 mg/tablet. The dried tablets weighed on average 150 mg each and when on the dorsal surface of the tongue, rapidly dissolved completely in saliva and coated the oropharyngeal surface. These tablets were suitable for initial pilot studies, but were not uniform in size, were friable, especially in conditions of high ambient humidity, and were not readily amenable to further analytical evaluation.
Sensory Qualities of ODT on the Oral Cavity and Pharyngeal Surfaces The DAPA ODT of Study 2 were evaluated for sensory properties on volunteers. The ODT-A results [see table] are from 6 to 8 trials per compound in several experienced individuals familiar with sensory properties of “cooling agents”. The results of ODT-A will be discussed together with ODT-B and ODT-C.

throat = experiment: Cold water test after ODT-A (cold discomfort); format: in vivo, human; parameters: key: If the subject felt “normal coolness” in the throat, the value was “0”; if the water felt “excessively cold” on the throat, it was rated as “+”; if there was “aching cold/discomfort” on the throat, the ranking was “++”; settings: ODT-A on the tongue, ice water drunk 10 min later
Procedure: After application of ODT-A there were sensations associated with heat abstraction of various intensity and duration. Of particular note was the sensation of “icy or painful” cold was felt with some compounds, but the effect was variable. To isolate this sensation more precisely and reduce variability, ODT-A was placed on the tongue and 10 min later the subject was instructed to drink a mouthful of water previously equilibrated with ice chips. If the subject felt “normal coolness” in the throat, the value was “0”; if the water felt “excessively cold” on the throat, it was rated as “+”; and if there was “aching cold/discomfort” on the throat, the ranking was “++”. The term “cold discomfort” was applied compounds that produced “++”, and this phenomenon could now be reliably defined and identified with the cold water test.

oropharynx = experiment: Chili-pepper sauce irritation test; format: in vivo, human; parameters: key: If there was no suppression of the irritant/tickling sensations of the sauce, the value was “0”; if there was some suppression, the value was “+”; if there was complete suppression, then the value was “++.”; settings: ODT, sauce applied 30 min later; 6 to 8 trials per compound
Excerpt: The “pain” component of inflammation includes irritation, itch, and discomfort and suppression of these endpoints is termed “anti-nociceptive”. To determine if a compound has anti-nociceptive activity, the Inventor has devised a modified capsaicin challenge method to evoke discomfort in the oropharyngx: the chili-pepper sauce irritation test. Chili-pepper sauce placed onto the posterior dorsal surface of the tongue evokes a tickling/irritant sensations in the oropharynx. The sensations associated with the chili pepper sauce are located in the back of the mouth and are clearly recognized and associated with irritation and a desire to clear the throat. In the chili-pepper sauce irritation test, the test compound is delivered using an ODT, as in Study 3, and 30 min later 0.2 to 0.25 mL of the sauce was applied onto the posterior dorsal surface of the tongue (with a syringe or a plastic stick). The chili pepper sauce used here is called Yank Sing® Chili Pepper Sauce (YS Gourmet Productions, Inc., PO Box 26189, San Francisco, Calif. 94126) and is a well-known condiment for use with dim sum (Chinese tea lunch). If there was no suppression of the irritant/tickling sensations of the sauce, the value was “0”; if there was some suppression, the value was “+”; and if there was complete suppression, then the value was “++.” For compounds that gave a ++ score, the irritative signals of the chili-pepper sauce are completely absent, yet the salty taste from the soy sauce of the condiment can still be readily tasted. A “++” result indicated suppression of the irritant effects of chili-pepper sauce. Numerical results are from 6 to 8 trials per compound.

[2] = molecular target: T1, cloned hTRPM8 channel (encoded by the human TRPM8 gene, expressed in CHO cells) (Homo sapiens, UniProt Q7Z2W7); experiment: TRPM8 agonist FLIPR Fluo-8 calcium assay; format: cell-based; settings: for TRPM8 Relative Potency: DAPA-1-7 = 1
T1 construct: host or cells: CHO cells, stably transfected
T1 sequence (Q7Z2W7 whole entry): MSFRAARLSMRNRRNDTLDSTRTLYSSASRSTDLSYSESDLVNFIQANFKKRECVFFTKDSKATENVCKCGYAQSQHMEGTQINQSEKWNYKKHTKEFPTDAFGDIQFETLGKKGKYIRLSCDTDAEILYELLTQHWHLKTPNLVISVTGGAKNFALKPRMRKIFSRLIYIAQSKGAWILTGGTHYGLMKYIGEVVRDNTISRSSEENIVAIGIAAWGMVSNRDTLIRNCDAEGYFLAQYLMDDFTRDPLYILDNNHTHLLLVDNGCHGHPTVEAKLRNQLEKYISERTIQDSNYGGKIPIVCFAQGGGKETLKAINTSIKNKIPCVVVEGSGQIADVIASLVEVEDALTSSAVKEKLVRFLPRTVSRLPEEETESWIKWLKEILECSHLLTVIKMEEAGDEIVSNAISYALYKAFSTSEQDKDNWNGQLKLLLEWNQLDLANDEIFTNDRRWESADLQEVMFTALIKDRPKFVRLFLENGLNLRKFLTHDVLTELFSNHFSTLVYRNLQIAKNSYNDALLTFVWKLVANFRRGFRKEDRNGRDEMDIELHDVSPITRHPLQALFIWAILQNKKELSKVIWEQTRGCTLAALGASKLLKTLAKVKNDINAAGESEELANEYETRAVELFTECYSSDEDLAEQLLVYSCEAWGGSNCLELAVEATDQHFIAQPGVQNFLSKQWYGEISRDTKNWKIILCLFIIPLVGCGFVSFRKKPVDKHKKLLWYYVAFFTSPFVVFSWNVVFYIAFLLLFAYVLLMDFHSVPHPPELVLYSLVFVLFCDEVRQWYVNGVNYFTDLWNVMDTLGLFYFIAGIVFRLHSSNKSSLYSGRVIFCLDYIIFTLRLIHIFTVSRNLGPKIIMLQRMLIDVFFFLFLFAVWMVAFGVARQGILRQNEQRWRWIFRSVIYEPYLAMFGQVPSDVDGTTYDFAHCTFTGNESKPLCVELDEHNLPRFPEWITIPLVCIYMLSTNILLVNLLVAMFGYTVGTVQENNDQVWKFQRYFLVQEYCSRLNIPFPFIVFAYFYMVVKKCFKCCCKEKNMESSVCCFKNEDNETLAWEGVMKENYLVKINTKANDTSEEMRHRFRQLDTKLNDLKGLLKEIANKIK
Procedure: The in vitro effects of test compounds were evaluated on cloned hTRPM8 channel (encoded by the human TRPM8 gene, expressed in CHO cells) using a Fluo-8 calcium kit and a Fluorescence Imaging Plate Reader (FLIPR^TETRA™) instrument.
Test compounds and positive control solutions were prepared by diluting stock solutions in a HEPES-buffered physiological saline (HBPS) solution. The test compound and control formulations were loaded in polypropylene or glass-lined 384-well plates, and placed into the FLIPR instrument (Molecular Devices Corporation, Union City, Calif., USA). The test compounds were evaluated at 4 or 8 concentrations with n=4 replicates per determination. […] The test cells were Chinese Hamster Ovary (CHO) cells stably transfected with human TRPM8 cDNAs.
For the FLIPR^TETRA™ assay, cells were plated in 384-well black wall, flat clear-bottom microtiter plates (Type: BD Biocoat Poly-D-Lysine Multiwell Cell Culture Plate) at approximately 30,000 cells per well. Cells were incubated at 37° C. overnight to reach a near confluent monolayer appropriate for use in a fluorescence assay. The test procedure was to remove the growth media and to add 40 μL of HBPS containing Fluo-8 for 30 min at 37° C. 10 μL of test compound, vehicle, or control solutions in HBPS were added to each well and read for 4 min.
Concentration-response data were analyzed via the FLIPR Control software that is supplied with the FLIPR System (MDS-AT) and fitted to a Hill equation of the following form: […]
where: “Base” is the response at low concentrations of test compound; “Max” is the maximum response at high concentrations; “xhalf” is the EC50, the concentration of test compound producing half-maximal activation; and “rate” is the Hill coefficient. Nonlinear least squares fits were made assuming a simple one-to-one binding model.

| Cold Discomfort (throat) | Relative Potency to L-menthol [2] | TRPM8 Relative Potency [2] | Compound | Duration [1] | Onset [1] | Sensory Quality [1] | Chili test (oropharynx) | rank in TRPM8 potency among the 21 compounds tested [2] |
| --- | --- | --- | --- | --- | --- | --- | --- | --- |
| + | 5.4 | 1 | CCCCCCCP(=O)(C(C)C)C(C)C [DAPA-1-7, 1-Di(isopropyl)-phosphinoyl-heptane] | 16 min | 0.6 min | cool/cold | ++ | – |
| + | 2.9 | 0.71 | CCCCCCCCP(=O)(C(C)CC)C(C)CC (stereo not drawn) [DAPA-2-8, 1-Di(sec-butyl) phosphinoyl-octane] | 27 min | 1.2 min | cool | + | – |
| ++ | 4.7 | 0.87 | CCCCCCP(=O)(C(C)CC)C(C)CC (stereo not drawn) [DAPA-2-6, 1-Di(sec-butyl) phosphinoyl-hexane] | 18 min | 0.7 min | cool/cold | ++ | – |
| ++ | 1.6 | – | CCCCCCP(=O)(C(C)C)C(C)C [DAPA-1-6, 1-Di(isopropyl)-phosphinoyl-hexane] | 16 min | 0.6 min | cool/cold | ++ | – |

| Compound | Cold Discomfort (throat) | Relative Potency to L-menthol [2] | TRPM8 Relative Potency [2] | Duration [1] | Onset [1] | Sensory Quality [1] | Chili test (oropharynx) | rank in TRPM8 potency among the 21 compounds tested [2] |
| --- | --- | --- | --- | --- | --- | --- | --- | --- |
| CCCCCP(=O)(C(C)CC)C(C)CC (stereo not drawn) [DAPA-2-5, 1-Di(sec-butyl)-phosphinoyl-pentane] | 0 | 2.2 | 0.41 | 12 min | 0.1 min | dynamic cool | ++ | 12 |
| CCCCCCCP(=O)(C(C)CC)C(C)CC (stereo not drawn) [DAPA-2-7, 1-Di(sec-butyl) phosphinoyl-heptane] | ++ | 3.4 | 0.64 | 21 min | 0.7 min | cool/cold | ++ | – |

From US20150111852A1, “1-Di(sec-butyl)-phosphinoyl-pentane (dapa-2-5) as a topical agent” (priority 2013, published 2015)
